Where “and” joins values, the source holds several entries; their conditions need not be identical. Equal entries are not always repeated.
Assays:
[1] = test system: THP-1 Lucia ISG cells (interferon pathway); experiment: Potency test of purified dimers on THP-1 Lucia ISG reporter cells; assay type: cell-based, human; conditions: for EC50: three biological replicates, read-out: EC50, THP-1 Lucia interferon reporter; for Raw readings: replicates 1-3, duplicate wells
Procedure: Cells were pelleted (150g, 10 min) and resuspended in the growth medium (40% conditioned) at a density of 1 × 10^6 cells ml^−1. The cell suspension was dispensed (50 µl each well) into a lidded white 96-well plate (BrandTech 781665). Test compounds or DMSO control were diluted in the growth medium and sterilized by filtering through 0.22-µm polyethersulfone (PES) membranes (Merck SLGP033RS). […] Upon cooling down to room temperature, 50 µl of reconstituted luciferase substrate (InvivoGen QUANTI-Luc) was added to each well via the injector of the plate reader (Molecular Devices SpectraMax i3x), and the luminescence output was recorded (4 s delay, 0.1 s integration). Raw signals were divided by the averaged signal of the DMSO-treated control wells and reported in relative luminescence unit (RLU). The dose–response curve of each replicate was fitted individually using the standard 4PL model (GraphPad Prism). The EC50 value of each compound was averaged from three independent experiments and reported as mean ± s.e.m.

Hs578T xenografts = experiment: Hs578T zebrafish xenograft model; conditions: for 2dpi phagocytosis: individual larvae; for M1 (M1/M2) / M2 (M1/M2) / Caspase-3 / TAM / Tumor Size: replicate values; for apoptosis (activated Caspase 3) in xenografts: 4 dpi, MSA2 15 μM, SC2S 0.62 μM, β-GlcA-N1/E4 20 μM each
[2] = Homo sapiens, THP1-Lucia ISG, 24 h

Compound: COc1cc2cc(C(=O)CCC(=O)O)sc2cc1OC [MSA2]
- fold induction at 0.244141 µM ([1]; Homo sapiens, THP1-Lucia ISG, 24 h, Concentration 0.244141 μM, three replicates, read-out: Processed reporter response per replicate (reading relative to DMSO)): 1.21
- fold induction at 0.976563 µM ([1]; Homo sapiens, THP1-Lucia ISG, 24 h, Concentration 0.976563 μM, three replicates, read-out: Processed reporter response per replicate (reading relative to DMSO)): 1.26
- fold induction at 1.95312 µM ([1]; Homo sapiens, THP1-Lucia ISG, 24 h, Concentration 1.95312 μM, three replicates, read-out: Processed reporter response per replicate (reading relative to DMSO)): 0.95
- fold induction at 3.90625 µM ([1]; Homo sapiens, THP1-Lucia ISG, 24 h, Concentration 3.90625 μM, three replicates, read-out: Processed reporter response per replicate (reading relative to DMSO)): 1.7
- fold induction at 15.625 µM ([1]; Homo sapiens, THP1-Lucia ISG, 24 h, Concentration 15.625 μM, three replicates, read-out: Processed reporter response per replicate (reading relative to DMSO)): 316
- fold induction at 31.25 µM ([1]; Homo sapiens, THP1-Lucia ISG, 24 h, Concentration 31.25 μM, three replicates, read-out: Processed reporter response per replicate (reading relative to DMSO)): 499
- fold induction at 62.5 µM ([1]; Homo sapiens, THP1-Lucia ISG, 24 h, Concentration 62.5 μM, three replicates, read-out: Processed reporter response per replicate (reading relative to DMSO)): 530
- fold induction at 125 µM ([1]; Homo sapiens, THP1-Lucia ISG, 24 h, Concentration 125 μM, three replicates, read-out: Processed reporter response per replicate (reading relative to DMSO)): 553
- EC50 [1, 2]: 15 µM
- Raw readings ([1]; MSA2 0.244141 uM): 644 RLU and 918 RLU and 1550 RLU and 217 RLU and 421 RLU
- Raw readings ([1]; MSA2 0.488281 uM): 365 RLU and 407 RLU and 1564 RLU and 1732 RLU and 767 RLU and 301 RLU
- Raw readings ([1]; MSA2 0.976563 uM): 533 RLU and 812 RLU and 1033 RLU and 1215 RLU and 1749 RLU and 577 RLU
- Raw readings ([1]; MSA2 1.95312 uM): 558 RLU and 456 RLU and 1596 RLU and 1428 RLU and 16030 RLU and 391 RLU
- Raw readings ([1]; MSA2 3.90625 uM): 737 RLU and 1083 RLU and 2552 RLU and 2286 RLU and 91800 RLU and 972 RLU
- Raw readings ([1]; MSA2 7.8125 uM): 10329 RLU and 8090 RLU and 44667 RLU and 40124 RLU and 159658 RLU and 39192 RLU
- Raw readings ([1]; MSA2 15.625 uM): 182029 RLU and 155323 RLU and 290195 RLU and 281155 RLU and 218467 RLU and 180884 RLU
- Raw readings ([1]; MSA2 31.25 uM): 283415 RLU and 249220 RLU and 393493 RLU and 394488 RLU and 219551 RLU and 327473 RLU
- Raw readings ([1]; MSA2 62.5 uM): 293238 RLU and 272508 RLU and 497557 RLU and 499850 RLU and 276937 RLU and 389453 RLU
- Raw readings ([1]; MSA2 125 uM): 315598 RLU and 275220 RLU and 511799 RLU and 524474 RLU and 276606 RLU and 386234 RLU
- 2dpi phagocytosis (Hs578T xenografts; experiment 230522): 35 and 14 and 22 and 25 and 15
- 2dpi phagocytosis (Hs578T xenografts; experiment 230726): 13 and 22 and 48 and 31 and 19 and 33 and 17
- M1 (M1/M2) (Hs578T xenografts; 2dpi): 60 and 67.5676 and 80 and 70.8333 and 69.7674 and 76.1905 and 64.1026 and 75 and 95.082 and 71.7949 and 80.6452 and 74.4681 and 72.4638 and 63.6364
- M2 (M1/M2) (Hs578T xenografts; 2dpi): 40 and 32.4324 and 20 and 29.1667 and 30.2326 and 23.8095 and 35.8974 and 25 and 4.918 and 28.2051 and 19.3548 and 25.5319 and 27.5362 and 36.3636
- apoptosis (activated Caspase 3) in xenografts (Hs578T xenografts): significantly induced apoptosis
- M1 (M1/M2) (Hs578T xenografts; 4dpi): 35.7143 and 18.1818 and 40 (2×) and 21.0526 and 50 (3×) and 20 and 60 (2×) and 61.1111 and 28.125 and 25
- M2 (M1/M2) (Hs578T xenografts; 4dpi): 64.2857 and 81.8182 and 60 (2×) and 78.9474 and 50 (3×) and 80 and 40 (2×) and 38.8889 and 71.875 and 75
- Caspase-3 (Hs578T xenografts; experiment 230522): 1.291 and 1.3466 and 1.247 and 1.364 and 1.32 and 1.585 and 1.384 and 1.691 and 1.403 and 2.142 and 1.383
- TAM (Hs578T xenografts; experiment 230522): 1.785 and 1.828 and 1.882 and 4.773 and 1.144 and 1.242 and 2.18 and 1.55 and 1.171
- Tumor Size (Hs578T xenografts; experiment 230522): 0.8654 and 0.6638 and 0.8064 and 0.8329 and 0.9735 and 0.8457 and 0.6726 and 0.8811 and 0.8231 and 0.9824 and 0.6461
- Caspase-3 (Hs578T xenografts; experiment 230726): 1.714 and 1.239 and 2.528 and 1.801 and 0.8175 and 0.6878 and 1.986 and 0.813 and 0.7306 and 1.755
- TAM (Hs578T xenografts; experiment 230726): 1.62 and 4.474 and 2.224 and 3.257 and 1.206 and 1.259
- Tumor Size (Hs578T xenografts; experiment 230726): 0.8603 and 1.051 and 0.553 and 0.606 and 0.4686 and 0.6683 and 0.7425 and 0.3533 and 0.734 and 0.8296

Compound: COc1cc2sc(C(=O)CCC(=O)O)cc2cc1SCCSc1cc2cc(C(=O)CCC(=O)O)sc2cc1OC [SC2S]
- fold induction at 0.048828 µM ([1]; Homo sapiens, THP1-Lucia ISG, 24 h, Concentration 0.048828 μM, three replicates, read-out: Processed reporter response per replicate (reading relative to DMSO)): 1.32
- fold induction at 1.5625 µM ([1]; Homo sapiens, THP1-Lucia ISG, 24 h, Concentration 1.5625 μM, three replicates, read-out: Processed reporter response per replicate (reading relative to DMSO)): 332
- fold induction at 3.125 µM ([1]; Homo sapiens, THP1-Lucia ISG, 24 h, Concentration 3.125 μM, three replicates, read-out: Processed reporter response per replicate (reading relative to DMSO)): 425
- fold induction at 6.25 µM ([1]; Homo sapiens, THP1-Lucia ISG, 24 h, Concentration 6.25 μM, three replicates, read-out: Processed reporter response per replicate (reading relative to DMSO)): 434
- fold induction at 12.5 µM ([1]; Homo sapiens, THP1-Lucia ISG, 24 h, Concentration 12.5 μM, three replicates, read-out: Processed reporter response per replicate (reading relative to DMSO)): 407
- EC50 [1, 2]: 0.71 µM
- Raw readings ([1]; SC2S 0.024414 uM): 620 RLU and 583 RLU and 1367 RLU and 1519 RLU and 365 RLU and 638 RLU
- Raw readings ([1]; SC2S 0.048828 uM): 577 RLU and 837 RLU and 1473 RLU and 1276 RLU and 668 RLU and 425 RLU
- Raw readings ([1]; SC2S 0.097656 uM): 783 RLU and 620 RLU and 2316 RLU and 2552 RLU and 1504 RLU and 372 RLU
- Raw readings ([1]; SC2S 0.195313 uM): 2302 RLU and 2526 RLU and 10005 RLU and 13263 RLU and 15158 RLU and 614 RLU
- Raw readings ([1]; SC2S 0.390625 uM): 13233 RLU and 15402 RLU and 73880 RLU and 85525 RLU and 96208 RLU and 759 RLU
- Raw readings ([1]; SC2S 0.78125 uM): 80951 RLU and 92499 RLU and 198651 RLU and 223105 RLU and 189225 RLU and 37417 RLU
- Raw readings ([1]; SC2S 1.5625 uM): 175164 RLU and 179560 RLU and 265669 RLU and 303539 RLU and 222866 RLU and 166854 RLU
- Raw readings ([1]; SC2S 3.125 uM): 222262 RLU and 231080 RLU and 301434 RLU and 333311 RLU and 245937 RLU and 322808 RLU
- Raw readings ([1]; SC2S 6.25 uM): 230364 RLU and 232723 RLU and 323434 RLU and 349356 RLU and 281517 RLU and 362047 RLU
- Raw readings ([1]; SC2S 12.5 uM): 216991 RLU and 217865 RLU and 313187 RLU and 335098 RLU and 238105 RLU and 315297 RLU
- 2dpi phagocytosis (Hs578T xenografts; experiment 230522): 35 and 30 and 42 and 17 and 0* and 22 and 16
- 2dpi phagocytosis (Hs578T xenografts; experiment 230726): 62 and 48 and 23 and 18 and 44 and 12 and 10 and 20
- M1 (M1/M2) (Hs578T xenografts; 2dpi): 56.4103 and 69.5652 and 75.5556 and 67.5 and 90 and 84.6154 and 78.7234 and 82.8947 and 70.4918 and 72.549 and 65.3846 and 65 and 82.6087 and 55.5556 and 72.2222
- M2 (M1/M2) (Hs578T xenografts; 2dpi): 43.5897 and 30.4348 and 24.4444 and 32.5 and 10 and 15.3846 and 21.2766 and 17.1053 and 29.5082 and 27.451 and 34.6154 and 35 and 17.3913 and 44.4444 and 27.7778
- apoptosis (activated Caspase 3) in xenografts (Hs578T xenografts): significantly induced apoptosis
- M1 (M1/M2) (Hs578T xenografts; 4dpi): 36.3636 and 58.3333 (2×) and 42.8571 and 37.5 and 12.5 and 25 and 54.5455 and 41.1765 and 31.4286 and 70.3704 and 40 and 39.1304 and 37.037 and 33.3333
- M2 (M1/M2) (Hs578T xenografts; 4dpi): 63.6364 and 41.6667 (2×) and 57.1429 and 62.5 and 87.5 and 75 and 45.4545 and 58.8235 and 68.5714 and 29.6296 and 60 and 60.8696 and 62.963 and 66.6667
- Caspase-3 (Hs578T xenografts; experiment 230522): 1.443 and 1.289 and 1.712 and 1.324 and 1.988 and 1.517 and 1.448 and 1.484 and 1.486 and 2.204 and 2.224
- TAM (Hs578T xenografts; experiment 230522): 2.1705 and 1.352 and 2.571 and 2.448 and 1.557 and 1.167
- Tumor Size (Hs578T xenografts; experiment 230522): 1.033 and 0.4622 and 0.7179 and 0.9145 and 1.19 and 0.9204 and 0.6815 and 0.7277 and 0.5409 and 0.7788
- Caspase-3 (Hs578T xenografts; experiment 230726): 1.045 and 1.374 and 1.091 and 2.171 and 0.9199 and 1.451 and 2.115
- TAM (Hs578T xenografts; experiment 230726): 1.204 and 2.4711 and 1.9907 and 1.109 and 1.5815 and 1.362 and 3.515 and 1.246
- Tumor Size (Hs578T xenografts; experiment 230726): 0.495 and 0.08364 and 0.7374 and 1.174 and 0.7912 and 0.9371 and 0.8603

From publication PMC12669040, “Tumour-specific STING agonist synthesis via a two-component prodrug system” (Nature Chemistry, 2025)
